These results are taken from ChEMBL document CHEMBL6134892, “Discovery and Evaluation of DA-302168S as an Efficacious Oral Small-Molecule Glucagon-Like Peptide-1 Receptor Agonist” (J Med Chem, 2025).

The term EC50 denotes the concentration at which the effect is half-maximal. The inhibition is the relative decrease from the control value, in per cent. Broadly, the Cmax is the highest concentration seen after dosing. As usually defined, the AUC(0-t) is the area under the concentration-time curve up to a stated or last time point. The IC50 is the midpoint of a concentration-inhibition curve. A word on the bioavailability: it is dose-corrected exposure relative to a reference, in per cent. A word on the half-life: it is the time needed for the level to fall by half in the phase considered. By Tmax is commonly meant the time at which the peak concentration occurs.

Series [1] deals with T1, Glucagon-like peptide 1 receptor (Rattus norvegicus, UniProt P32301).
T1 sequence (P32301 whole entry): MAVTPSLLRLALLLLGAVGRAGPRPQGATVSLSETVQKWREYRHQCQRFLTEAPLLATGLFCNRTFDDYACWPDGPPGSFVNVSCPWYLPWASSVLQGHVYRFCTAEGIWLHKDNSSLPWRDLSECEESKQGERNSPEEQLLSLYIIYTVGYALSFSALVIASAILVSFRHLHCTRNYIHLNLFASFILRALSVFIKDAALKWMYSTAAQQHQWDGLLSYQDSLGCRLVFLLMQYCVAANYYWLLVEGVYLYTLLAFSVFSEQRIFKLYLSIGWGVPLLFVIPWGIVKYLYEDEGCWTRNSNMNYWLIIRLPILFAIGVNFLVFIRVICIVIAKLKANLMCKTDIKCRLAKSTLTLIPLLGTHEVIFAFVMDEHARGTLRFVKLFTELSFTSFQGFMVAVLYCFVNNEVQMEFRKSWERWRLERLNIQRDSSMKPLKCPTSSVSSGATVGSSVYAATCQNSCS
Put plainly: Agonist activity at rat GLP-1R expressed in HEK293 cells by cAMP accumulation assay. In kind it is functional, cell-based. A general note: Cyclic AMP is a second messenger, typically raised through Gs and lowered through Gi signalling.

Another series has as its target 5-HT1B receptor (Homo sapiens, UniProt P28222). Put plainly: Inhibition of 5-HT1B (unknown origin) at 10 uM relative to control. In kind it is toxicity.
Series [2] can be described thus: Cmax in Cynomolgus monkey at 5 mg/kg, po measured up to 48 hrs by LC-MS/MS analysis. In kind it is ADME, organism-based, Macaca fascicularis. As to conditions: in vivo.
Series [3] concerns the target T2, Glucagon-like peptide 1 receptor (Homo sapiens, UniProt P43220). Put plainly: Agonist activity at human GLP-1R expressed in HEK293 cells coexpressing CRE LUC incubated for 5 hrs by luciferase based microplate reader analysis. In kind it is functional, cell-based.
In series [4] the target is CB2 (cannabinoid receptor 2) (Homo sapiens, UniProt P34972). In words: Inhibition of CB2 (unknown origin) at 10 uM relative to control. In kind it is toxicity.
Chain of CB2 (cannabinoid receptor 2) (P34972 whole entry): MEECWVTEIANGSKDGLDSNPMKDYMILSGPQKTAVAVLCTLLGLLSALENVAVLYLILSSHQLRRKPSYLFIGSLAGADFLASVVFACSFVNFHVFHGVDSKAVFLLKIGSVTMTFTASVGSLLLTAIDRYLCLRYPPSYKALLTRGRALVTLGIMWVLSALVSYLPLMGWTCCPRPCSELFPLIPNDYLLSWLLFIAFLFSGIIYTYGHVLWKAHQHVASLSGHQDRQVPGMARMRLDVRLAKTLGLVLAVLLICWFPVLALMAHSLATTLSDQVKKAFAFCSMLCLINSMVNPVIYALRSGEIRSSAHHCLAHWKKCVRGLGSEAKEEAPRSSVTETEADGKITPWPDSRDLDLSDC
The nature of series [5]: Metabolic stability in human liver microsomes assessed as intrinsic clearance at 1 uM measured after 5 to 45 mins in presence of NADPH by LC-MS/MS analysis. In kind it is ADME, Microsome. The settings on record: time 5-45 min, read-out: CLH. (Liver microsomes are vesicles of endoplasmic reticulum, rich in cytochrome P450 enzymes.)
The nature of series [6]: AUC last in Sprague-Dawley rat at 10 mg/kg, po measured up to 24 hrs by LC-MS/MS analysis. In kind it is ADME, organism-based. As to conditions: in vivo.
The target of a further series is T3, Cytochrome P450 2C8 (Homo sapiens, UniProt P10632).
T3 sequence (P10632 whole entry): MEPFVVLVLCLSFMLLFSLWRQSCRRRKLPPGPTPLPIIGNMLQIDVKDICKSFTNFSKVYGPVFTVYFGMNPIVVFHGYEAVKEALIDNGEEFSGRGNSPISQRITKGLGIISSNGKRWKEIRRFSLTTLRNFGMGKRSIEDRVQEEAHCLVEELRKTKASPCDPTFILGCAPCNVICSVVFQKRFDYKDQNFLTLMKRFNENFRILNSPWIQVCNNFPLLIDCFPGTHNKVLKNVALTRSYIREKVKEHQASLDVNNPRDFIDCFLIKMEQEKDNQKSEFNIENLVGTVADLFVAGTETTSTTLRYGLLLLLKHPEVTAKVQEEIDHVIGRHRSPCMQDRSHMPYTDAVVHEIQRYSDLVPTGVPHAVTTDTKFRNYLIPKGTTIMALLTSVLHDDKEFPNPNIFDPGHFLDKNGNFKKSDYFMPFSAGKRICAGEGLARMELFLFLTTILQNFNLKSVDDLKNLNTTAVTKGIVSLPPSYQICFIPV
Put plainly: Inhibition of CYP2C8 in human liver microsomes incubated for 20 mins in presence of NADPH by LC-MS/MS analysis. In kind it is ADME, Microsome.

Series [7] concerns the target T2, Glucagon-like peptide 1 receptor. In words: Agonist activity at human GLP-1R expressed in HEK293 cells by cAMP accumulation assay. In kind it is functional, cell-based.
Series [8] is described as follows: AUC last in Cynomolgus monkey at 5 mg/kg, po measured up to 48 hrs by LC-MS/MS analysis. The settings on record: in vivo. In kind it is ADME, organism-based, Macaca fascicularis.
Series [9] can be described thus: Oral bioavailability in Cynomolgus monkey at 5 mg/kg measured up to 48 hrs by LC-MS/MS analysis. In kind it is ADME, organism-based, Macaca fascicularis. As to conditions: in vivo.
The target in the next series is hERG (KCNH2) (Homo sapiens, UniProt Q12809). Put plainly: Inhibition of human ERG at 30 uM by whole-cell patch clamp technique relative to control. In kind it is toxicity. (In general: The patch-clamp technique gives a direct electrical read-out from membranes.)
Chain of hERG (KCNH2) (Q12809 whole entry): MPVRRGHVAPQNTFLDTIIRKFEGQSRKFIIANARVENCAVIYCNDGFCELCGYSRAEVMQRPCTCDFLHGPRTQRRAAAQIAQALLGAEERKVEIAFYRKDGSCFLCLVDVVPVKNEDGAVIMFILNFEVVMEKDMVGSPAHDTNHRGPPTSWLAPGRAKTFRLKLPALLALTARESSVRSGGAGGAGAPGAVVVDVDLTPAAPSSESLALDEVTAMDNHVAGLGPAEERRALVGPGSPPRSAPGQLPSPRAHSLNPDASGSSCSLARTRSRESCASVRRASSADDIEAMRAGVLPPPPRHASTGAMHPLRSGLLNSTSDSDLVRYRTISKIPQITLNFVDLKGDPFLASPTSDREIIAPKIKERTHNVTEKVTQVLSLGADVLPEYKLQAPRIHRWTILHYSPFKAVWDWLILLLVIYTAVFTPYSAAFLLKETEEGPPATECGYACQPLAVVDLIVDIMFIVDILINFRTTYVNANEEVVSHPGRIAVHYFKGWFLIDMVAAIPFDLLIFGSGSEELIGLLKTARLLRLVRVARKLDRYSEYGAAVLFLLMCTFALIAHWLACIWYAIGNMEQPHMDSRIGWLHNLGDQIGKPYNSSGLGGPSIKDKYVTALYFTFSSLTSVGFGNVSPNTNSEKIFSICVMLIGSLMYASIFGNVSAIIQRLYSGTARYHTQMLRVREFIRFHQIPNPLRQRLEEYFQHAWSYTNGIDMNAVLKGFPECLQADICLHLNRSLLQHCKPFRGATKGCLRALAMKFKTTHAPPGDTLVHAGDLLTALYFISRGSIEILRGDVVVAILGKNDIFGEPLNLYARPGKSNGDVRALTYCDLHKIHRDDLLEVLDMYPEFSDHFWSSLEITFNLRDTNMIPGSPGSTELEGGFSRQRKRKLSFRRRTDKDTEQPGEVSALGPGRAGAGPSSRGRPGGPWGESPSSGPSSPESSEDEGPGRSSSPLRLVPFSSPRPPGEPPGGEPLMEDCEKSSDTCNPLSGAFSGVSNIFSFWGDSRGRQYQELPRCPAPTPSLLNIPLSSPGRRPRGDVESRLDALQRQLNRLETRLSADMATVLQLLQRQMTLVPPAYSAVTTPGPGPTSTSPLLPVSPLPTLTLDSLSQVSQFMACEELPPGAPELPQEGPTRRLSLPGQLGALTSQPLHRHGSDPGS
The target of another series is T4, Cytochrome P450 2B6 (Homo sapiens, UniProt P20813).
T4 sequence (P20813 whole entry): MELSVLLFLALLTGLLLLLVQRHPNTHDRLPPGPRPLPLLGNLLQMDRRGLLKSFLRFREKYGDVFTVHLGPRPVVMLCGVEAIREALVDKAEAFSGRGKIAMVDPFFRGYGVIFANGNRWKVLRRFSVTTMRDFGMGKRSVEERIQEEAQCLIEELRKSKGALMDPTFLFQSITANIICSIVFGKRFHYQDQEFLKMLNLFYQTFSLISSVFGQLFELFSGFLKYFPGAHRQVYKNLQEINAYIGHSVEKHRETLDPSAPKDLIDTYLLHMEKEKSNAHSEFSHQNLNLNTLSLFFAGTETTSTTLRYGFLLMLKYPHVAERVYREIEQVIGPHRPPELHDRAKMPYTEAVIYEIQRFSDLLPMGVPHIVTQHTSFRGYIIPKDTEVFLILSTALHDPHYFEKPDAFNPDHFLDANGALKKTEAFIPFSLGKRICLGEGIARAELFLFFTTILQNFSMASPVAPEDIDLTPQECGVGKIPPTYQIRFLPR
In words: Inhibition of CYP2B6 in human liver microsomes incubated for 10 mins in presence of NADPH by LC-MS/MS analysis. In kind it is ADME, Microsome.

Series [10] is described as follows: Metabolic stability in human liver microsomes assessed as hepatic clearance at 1 uM measured after 5 to 45 mins in presence of NADPH by LC-MS/MS analysis. As to conditions: time 5-45 min. In kind it is ADME, Microsome.
Series [11] in a line: Half life in Cynomolgus monkey at 0.5 mg/kg, iv measured up to 48 hrs by LC-MS/MS analysis. In kind it is ADME, organism-based, Macaca fascicularis. As to conditions: in vivo.
The nature of series [12]: Oral bioavailability in Sprague-Dawley rat at 10 mg/kg measured up to 24 hrs by LC-MS/MS analysis. In kind it is ADME, organism-based. The settings on record: in vivo.
For another series, the target named is Cytochrome P450 2C19 (Homo sapiens, UniProt P33261). In words: Inhibition of CYP2C19 in human liver microsomes incubated for 45 mins in presence of NADPH by LC-MS/MS analysis. In kind it is ADME, Microsome.
Chain of Cytochrome P450 2C19 (P33261 whole entry): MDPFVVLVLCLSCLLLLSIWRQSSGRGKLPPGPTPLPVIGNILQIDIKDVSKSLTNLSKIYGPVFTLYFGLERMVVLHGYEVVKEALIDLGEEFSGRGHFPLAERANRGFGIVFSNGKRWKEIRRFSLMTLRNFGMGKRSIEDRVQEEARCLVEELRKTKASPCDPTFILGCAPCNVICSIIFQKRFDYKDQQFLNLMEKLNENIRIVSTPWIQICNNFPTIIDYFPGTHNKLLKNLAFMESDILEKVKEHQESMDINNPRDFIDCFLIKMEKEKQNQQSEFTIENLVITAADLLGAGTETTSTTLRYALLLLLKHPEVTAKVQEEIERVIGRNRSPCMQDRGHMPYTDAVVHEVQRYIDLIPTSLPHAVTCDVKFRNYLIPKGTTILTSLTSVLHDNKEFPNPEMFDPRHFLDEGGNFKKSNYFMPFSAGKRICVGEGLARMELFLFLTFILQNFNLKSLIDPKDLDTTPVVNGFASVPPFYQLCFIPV
Series [13] in a line: Agonist activity at cynomolgus monkey GLP-1R expressed in HEK293 cells by cAMP accumulation assay. The settings on record: Macaca fascicularis.
Series [14] can be described thus: Tmax in Sprague-Dawley rat at 10 mg/kg, po measured up to 24 hrs by LC-MS/MS analysis. The settings on record: in vivo. In kind it is ADME, organism-based.
Series [15] in a line: Metabolic stability in human liver microsomes assessed as half life at 1 uM measured after 5 to 45 mins in presence of NADPH by LC-MS/MS analysis. In kind it is ADME, Microsome. As to conditions: time 5-45 min.
The nature of series [16]: AUC last in male Sprague-Dawley rat at 1 mg/kg, iv measured up to 24 hrs by LC-MS/MS analysis. In kind it is ADME, organism-based. As to conditions: in vivo.
Series [17] is described as follows: Cmax in Sprague-Dawley rat at 10 mg/kg, po measured up to 24 hrs by LC-MS/MS analysis. In kind it is ADME, organism-based. The settings on record: in vivo.

T2 sequence (P43220 whole entry): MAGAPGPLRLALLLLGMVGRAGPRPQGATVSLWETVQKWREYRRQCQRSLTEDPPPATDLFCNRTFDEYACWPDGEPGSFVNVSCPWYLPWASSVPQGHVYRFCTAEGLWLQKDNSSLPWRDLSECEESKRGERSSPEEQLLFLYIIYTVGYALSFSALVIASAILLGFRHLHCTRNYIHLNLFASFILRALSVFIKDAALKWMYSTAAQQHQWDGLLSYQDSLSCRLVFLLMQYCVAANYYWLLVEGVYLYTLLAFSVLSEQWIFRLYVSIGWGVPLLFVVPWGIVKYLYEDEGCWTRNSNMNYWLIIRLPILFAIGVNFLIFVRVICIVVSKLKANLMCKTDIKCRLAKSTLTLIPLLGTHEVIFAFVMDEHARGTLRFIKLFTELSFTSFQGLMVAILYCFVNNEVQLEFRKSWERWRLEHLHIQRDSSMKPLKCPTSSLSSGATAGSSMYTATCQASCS
Chain of 5-HT1B receptor (P28222 whole entry): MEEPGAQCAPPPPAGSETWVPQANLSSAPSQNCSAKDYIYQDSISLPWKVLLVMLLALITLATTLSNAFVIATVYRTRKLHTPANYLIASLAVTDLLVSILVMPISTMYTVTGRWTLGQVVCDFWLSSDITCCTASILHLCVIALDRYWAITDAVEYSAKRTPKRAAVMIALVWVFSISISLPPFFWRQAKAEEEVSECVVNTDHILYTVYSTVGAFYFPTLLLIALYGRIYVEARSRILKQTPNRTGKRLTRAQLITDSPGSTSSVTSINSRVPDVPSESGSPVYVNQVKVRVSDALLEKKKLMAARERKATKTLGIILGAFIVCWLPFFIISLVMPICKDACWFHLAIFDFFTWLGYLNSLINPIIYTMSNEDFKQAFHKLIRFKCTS

As for `O=C(O)c1ccc2nc(Cc3ccc(-c4ccc(F)c(OCc5ccc(Cl)c6ccoc56)n4)cc3F)n(C[C@@H]3CCO3)c2c1`, the EC50 in series [1] was > 30000 nM; in series [3], 1.32 nM; in [7], 0.029 nM; in series [13] it was 0.012 nM. For the same molecule, the values for the inhibition at 10 µM (against 5-HT1B receptor; in [4]) were 62.4% and 74.4%, respectively. In addition, the results for the highest concentration (Cmax) in [2] and in series [17] were 327 ng/mL and 347 ng/mL, respectively. Besides, the CLint scaled at 1 µM in [5] turned out to be 13.3 mL/min/kg. In addition, the AUC(0-t) at 24 h in series [6] was 2960 ng·h/mL; in series [16] it was 1480 ng·h/mL. The values for the IC50 at Cytochrome P450 2C8, at Cytochrome P450 2B6 and on Cytochrome P450 2C19 were 28300 nM, > 30000 nM and > 30000 nM, respectively. In [8], this molecule displayed an area under the curve AUC(0-t) at 48 h of 2440 ng·h/mL. Further, the bioavailability in series [9] stood at 13.9%; in series [12] it was 20.1%. Moreover, the inhibition at 30 µM against hERG (KCNH2) is < 50%. Besides, the CLhep predicted at 1 µM in series [10] is 8.09 mL/min/kg. Moreover, the half-life in [11] is 12.7 h. The Tmax in [14] amounted to 3.5 h. Besides, the half-life at 1 µM in [15] was 2.18 h.
